From patent publication US20220304957A1, “ANTI-CANCER COMPOSITIONS AND METHODS OF USE” (Board of Supervisors of Louisiana State University and …, priority 2019, published 2022)

What was measured:
[1] = test system: intracranial GL-261 glioblastoma tumors; assay: Intracranial GL-261-luc glioblastoma model, pathological evaluation of tumors; type: in vivo, C57BL/6 mice; details: 50 mg/kg/day oral, 14 days, large pre-existing tumors, n=3
Procedure: Panel A: PP1 accumulation in different tissues following oral administration of PP1 (25 mg/kg). C57BL/6 mice were treated daily for 14 days, and the levels of PP1 in the blood, liver, spleen, kidney, heart, brain and in brain tumors, were evaluated by HPLC, as previously described. Data represent average values with standard deviation (n=3). Panel B: Body weight of C57BL/6 mice treated with PP1. Mice were treated with the PP1 at doses ranging from 25 to 75 mg/kg/day administered by oral gavage. Following 7 and 14 days of daily drug administration both control (DMSO-treated) and experimental (PP1-treated) mice were weighted. Data represent average values with standard deviation (at least three mice per group were included). In Panels A and B, tumor free and tumor bearing mice were included for the body weight measurement. Panels C, D and E: Intracranial growth of GL-261-Luc cells. […] Tumor size is expressed as radiance (photons/s/cm2/sr) and was quantified with the Living Image 4.1 software according to the manufacturer's recommendations (Xenogen). […]
Animal studies—All described procedures involving experimental animals were performed in accordance to the IACUC protocol #3444 at LSUHSC, New Orleans. […] The resulting images were evaluated and luminescence measurements from equivalent regions of interest encompassing the entire skull were collected using Living Image 4.1 software (Xenogen). […]

[2] = PP1 tissue distribution after oral administration (HPLC); type: in vivo, C57BL/6 mice
Procedure: Panel A: PP1 accumulation in different tissues following oral administration of PP1 (25 mg/kg). C57BL/6 mice were treated daily for 14 days, and the levels of PP1 in the blood, liver, spleen, kidney, heart, brain and in brain tumors, were evaluated by HPLC, as previously described. Data represent average values with standard deviation (n=3). Panel B: Body weight of C57BL/6 mice treated with PP1. Mice were treated with the PP1 at doses ranging from 25 to 75 mg/kg/day administered by oral gavage. Following 7 and 14 days of daily drug administration both control (DMSO-treated) and experimental (PP1-treated) mice were weighted. Data represent average values with standard deviation (at least three mice per group were included). In Panels A and B, tumor free and tumor bearing mice were included for the body weight measurement. Panels C, D and E: Intracranial growth of GL-261-Luc cells. C57 black mice, 6-8 weeks of age were anesthetized with 4% isoflurane and secured in a stereotaxic head frame (Harvard Apparatus, Holliston Mass.). GL-261-luc cells (1×10^5 cells in 2 μl; PerkinElmer Inc.) were injected into the brain parenchyma (coordinates: 3 mm anterior to Bregma; 1.5 mm lateral to Sagital suture; 3 mm down from surface) through a burr hole in the skull using a 10 μl Hamilton syringe. Panel C: Mice with large intracranial tumors were selected using bioluminescence imaging with Xenogen IVIS 200 system. Tumor size is expressed as radiance (photons/s/cm2/sr) and was quantified with the Living Image 4.1 software according to the manufacturer's recommendations (Xenogen). Panels D and E: Pathological evaluation of intracranial tumors and tissues. Following 14 days of drug administration (control: DMSO administered daily by oral gavage; PP1 50 mg/kg administered daily by oral gavage) the animals were euthanized, and the following organs were collected: liver, kidneys, spleen, heart, intact brain and intracranial tumors. The tissues were formalin-fixed, paraffin-embedded, and the resulting thin section were stained with hematoxylin and eosin (H&E) for a routine pathological evaluation.
Detection of PP compounds by high performance liquid chromatography (HPLC) —All HPLC data were obtained from the Agilent 1100 apparatus equipped with a line degasser, binary pump (high pressure mixer), autosampler, column thermostat and Diode Array Detector (DAD) (Agilent Technologies, Santa Clara, Calif.). The analytical column 3 μm, 4.6×150 mm (Octyl Silane C8; YMC America, Inc.), solvent A—50 mM acetic acid in water, and solvent B—acetonitrile, with isocratic flow were used to detect and quantify PP compounds in culture media, in cells, tissues and body fluids. The flow rate was set to 1 ml/min, column temperature was 20° C., and the sample volume was 5 μl. DAD wavelength was set to 285 nm. Sample preparation. Blood, cell culture media, cellular and tissue lysates, were deproteinized by adding 150 μl of acetonitrile to 150 μl of sample, mixed well and centrifuged (15 000 g, 5 min). The lysates were sonicated on ice and centrifuged (15 000 g, 5 min). Finally, 150 μl of the supernatant was mixed with the equal volume of acetonitrile, filtered through 0.22 μm centrifuge filter (Sigma) and analyzed by High Performance Liquid Chromatography (HPLC).
Animal studies—All described procedures involving experimental animals were performed in accordance to the IACUC protocol #3444 at LSUHSC, New Orleans. C57BL/6NHsd mice, 11-12 weeks of age (Envigo), were anesthetized with 4% isoflurane and secured in a stereotaxic head frame (Harvard Apparatus, Holliston Mass.). GL-261-luc cells (1×105) (PerkinElmer Inc.) were suspended in PBS and 2 μl aliquots were injected into the brain parenchyma (coordinates: 3 mm anterior to Bregma; 1.5 mm lateral to Sagital suture; 3 mm down from surface) through a burr hole in the skull using a 10 μl Hamilton syringe. […]

## CN(CCO)C(=O)C(C)(C)Oc1ccc(C(=O)c2ccc(Cl)cc2)cc1 [PP1, 2-[4-(4-chlorobenzoyl)phenoxy]-N-(2-hydroxyethyl)-N,2-dimethylpropanamide]
[1]
  necrosis within the tumor mass: multiple large areas of necrotic tissue within the tumor mass
[2]; C57BL/6, mouse, brain tumor tissue, po, 25 mg/kg, orally administered, mice, read-out: HPLC-measured concentration in the brain tumor tissues
  concentration at 14 days: 5 to 6 µM
[2]; oral gavage daily, 14 days
  accumulation in the liver: 10.3 ± 4.3 µM
  concentration in intracranial tumors: 5.8 ± 0.7 µM
  level in intact brains: 4.9 ± 3.4 µM
  level in the blood: 3.05 ± 0.2 µM
  level in the heart: 6.1 ± 2.4 µM
  level in the spleen: 7.6 ± 3.2 µM
[2]; oral gavage daily, 14 days, in µM
  accumulation in the kidney: 8.8+/−4.7
